Patent US20260274832A1, “COMPOUNDS AND THEIR USE IN TREATING CANCER” (ASTRAZENECA AB, priority 2023, published 2026)

What was measured:
[1] = biological target: T1, AR (AR-full length) in LNCaP cells (Homo sapiens, UniProt P10275, T878A); assay: LNCaP Androgen Receptor Imaging Assay (immunofluorescence of endogenous nuclear AR); assay type: cell-based; conditions: 24 h incubation; for DC50: concentration giving 50% of maximum degradation of AR per curve fit, single experiment or average of two or more; for Dmax: LNCaP; for Dmax / LNCaP AR Degradation Dmax: maximum degradation observed, normalized as % of positive control (prior art AR PROTAC at 3 μM)
T1 construct: the prostate cancer cell line LNCaP (expressing AR-full length); endogenous in cells; host or cells: LNCaP
Outline: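 LNCaP cells (12,000/well) received a 12-point compound dose series (0.3% DMSO) for 24 h at 37° C., then were PFA-fixed and stained for AR (AR441) and nuclei (DRAQ5). Nuclear AR was quantified by imaging, normalized to a 3 μM AR PROTAC control; DC50 and Dmax came from Hill/bell curve fits.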

[2] = biological target: T2, AR (L702H) in LNCaP cells (Homo sapiens, UniProt P10275, L702H/T878A); assay: LNCaP Androgen Receptor L702H Imaging Assay (LNCaP cells engineered by CRISPR/Cas9); assay type: cell-based; conditions: LNCaP cells with AR L702H mutation, 24 h incubation; for DC50: concentration giving 50% of maximum degradation of AR (L702H) per curve fit; for Dmax: LNCaP; for Dmax / LNCaP AR (L702H) Degradation Dmax: maximum degradation observed, normalized as % of positive control
T2 construct: engineered to introduce the mutation L702H into the AR gene using CRISPR/Cas9; endogenous in cells; host or cells: LNCaP cells edited by CRISPR/Cas9 at the AR gene
Outline: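 CRISPR-engineered LNCaP cells carrying AR L702H were treated 24 h at 37 °C with a 12-point compound dose response (0.3% DMSO), then fixed and immunostained for AR with DRAQ5 nuclear counterstain. Nuclear AR was quantified by imaging, normalized to positive control; DC50 and Dmax came from Hill or bell-shaped fits.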

T1 sequence (P10275 whole entry T878A): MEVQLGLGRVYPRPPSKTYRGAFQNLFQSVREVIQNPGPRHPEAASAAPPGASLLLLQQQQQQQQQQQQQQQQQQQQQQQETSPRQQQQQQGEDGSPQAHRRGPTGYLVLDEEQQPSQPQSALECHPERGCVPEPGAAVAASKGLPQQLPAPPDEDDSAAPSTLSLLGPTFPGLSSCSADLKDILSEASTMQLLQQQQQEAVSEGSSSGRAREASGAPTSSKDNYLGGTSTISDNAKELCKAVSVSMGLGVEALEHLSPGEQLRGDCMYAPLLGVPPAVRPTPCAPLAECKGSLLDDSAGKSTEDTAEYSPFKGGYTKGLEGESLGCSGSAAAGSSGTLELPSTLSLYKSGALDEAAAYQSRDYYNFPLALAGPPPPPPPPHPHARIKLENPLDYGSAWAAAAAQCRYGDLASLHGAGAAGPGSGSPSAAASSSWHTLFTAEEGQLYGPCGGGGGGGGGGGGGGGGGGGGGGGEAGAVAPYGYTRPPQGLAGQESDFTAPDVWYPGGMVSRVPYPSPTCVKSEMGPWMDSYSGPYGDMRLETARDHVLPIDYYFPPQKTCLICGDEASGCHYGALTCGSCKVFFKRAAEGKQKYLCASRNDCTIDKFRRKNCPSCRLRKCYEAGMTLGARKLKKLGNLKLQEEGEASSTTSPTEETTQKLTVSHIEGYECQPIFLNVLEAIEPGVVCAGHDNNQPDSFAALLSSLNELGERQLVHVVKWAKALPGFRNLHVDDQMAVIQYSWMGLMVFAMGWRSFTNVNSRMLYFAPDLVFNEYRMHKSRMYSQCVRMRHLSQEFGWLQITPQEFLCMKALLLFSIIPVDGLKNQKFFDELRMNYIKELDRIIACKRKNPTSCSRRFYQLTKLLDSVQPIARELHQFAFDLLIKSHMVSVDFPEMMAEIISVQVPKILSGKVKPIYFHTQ
T1 sequence (Q96SW2 whole entry partner): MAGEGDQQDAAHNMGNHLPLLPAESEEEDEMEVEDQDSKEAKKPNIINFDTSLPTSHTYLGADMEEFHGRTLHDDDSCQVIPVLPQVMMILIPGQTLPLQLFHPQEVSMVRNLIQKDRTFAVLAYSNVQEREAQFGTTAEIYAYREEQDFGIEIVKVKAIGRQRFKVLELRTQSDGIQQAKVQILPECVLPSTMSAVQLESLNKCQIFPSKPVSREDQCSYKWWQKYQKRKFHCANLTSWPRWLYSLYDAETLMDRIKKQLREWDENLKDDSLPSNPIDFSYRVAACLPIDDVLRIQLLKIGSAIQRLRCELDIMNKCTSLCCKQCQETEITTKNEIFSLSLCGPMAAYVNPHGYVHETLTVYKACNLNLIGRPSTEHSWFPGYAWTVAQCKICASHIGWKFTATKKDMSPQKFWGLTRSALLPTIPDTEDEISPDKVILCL
T2 sequence (P10275 whole entry L702H/T878A): as the sequence (P10275 whole entry T878A) above, with L702H counted along it
T2 sequence (Q96SW2 whole entry partner): as the sequence (Q96SW2 whole entry partner) above

DC50 [1] [µM] | Dmax [1] [%] | DC50 [2] [µM] | Dmax [2] [%] | LNCaP AR Degradation Dmax [1] [%] | LNCaP AR (L702H) Degradation Dmax [2] [%] | SMILES
0.007 | 88 | 0.014 | 56 |  |  | Cn1c(C2CCN(CC3CCN(c4ccc(C5CCN(c6ccc(F)c7c(C#N)n[nH]c67)CC5)cc4)CC3)CC2)cc2ccc(N3CCC(=O)NC3=O)cc21 [Example 140, 7-(4-{4-[4-({4-[6-(2,4-Dioxo-1,3-diazinan-1-yl)-1-methyl-1H-indol-2-yl]piperidin-1-yl}methyl)piperidin-1-yl]phenyl}piperidin-1-yl)-4-fluoro-1H-indazole-3-carbonitrile]
0.062 | 68 | 0.068 | 83 |  |  | N#Cc1c[nH]c2c(N3CCC(c4ccc(N5CCC(CN6Cc7cc8c(cc7C6)C(=O)N(C6CCC(=O)NC6=O)C8=O)CC5)cc4)CC3)ccc(Cl)c12 (centres unmarked) [Example 75, 4-Chloro-7-{4-[4-(4-{[6-(2,6-dioxopiperidin-3-yl)-5,7-dioxo-3,5,6,7-tetrahydropyrrolo[3,4-f]isoindol-2(1H)-yl]methyl}piperidin-1-yl)phenyl]piperidin-1-yl}-1H-indole-3-carbonitrile]
0.004 | 81 | 0.009 | 79 |  |  | N#Cc1c[nH]c2c(N3CCC(NC(=O)c4ccc(N5CCC(CN6CCN(c7ccc(C(=O)NC8CCC(=O)NC8=O)c(F)c7)CC6)CC5)cc4F)CC3)ccc(Cl)c12 (centres unmarked) [Example 154]
0.005 |  | 0.007 |  | 102 | 102 | COc1nc(N2CCN(CC3CCN(c4ccc(C5CCN(c6ccc(Cl)c7c(C#N)c[nH]c67)CC5)cc4)CC3)CC2)cc2c1C(=O)N(C1CCC(=O)NC1=O)C2 (single isomer, unassigned) [Example 36, 4-Chloro-7-[4-(4-{4-[(4-{2-[(3S*)-2,6-dioxopiperidin-3-yl]-4-methoxy-3-oxo-2,3-dihydro-1H-pyrrolo[3,4-c]pyridin-6-yl}piperazin-1-yl)methyl]piperidin-1-yl}phenyl)piperidin-1-yl]-1H-indole-3-carbonitrile]
0.008 | 104 | 0.006 | 108 |  |  | Cn1c(C2CCN(CC3CCN(c4ccc([C@H]5CCCN(c6ccc(Cl)c7c(C#N)n[nH]c67)C5)cc4)CC3)CC2)cc2cc(F)c(N3CCC(=O)NC3=O)cc21 [Example 138, 4-Chloro-7-[(3R)-3-{4-[4-({4-[6-(2,4-dioxo-1,3-diazinan-1-yl)-5-fluoro-1-methyl-1H-indol-2-yl]piperidin-1-yl}methyl)piperidin-1-yl]phenyl}piperidin-1-yl]-1H-indazole-3-carbonitrile]
0.002 | 101 | 0.003 | 106 |  |  | N#Cc1c[nH]c2c(N3CCC(NC(=O)c4ccc(N5CCC(CN6CCN(c7ccc8c(c7)CN(C7CCC(=O)NC7=O)C8=O)CC6)CC5)cc4F)CC3)ccc(Cl)c12 (centres unmarked) [Example 159, N-[1-(4-Chloro-3-cyano-1H-indol-7-yl)piperidin-4-yl]-4-[4-({4-[2-(2,6-dioxopiperidin-3-yl)-1-oxo-2,3-dihydro-1H-isoindol-5-yl]piperazin-1-yl}methyl)piperidin-1-yl]-2-fluorobenzamide]
0.007 | 93 | 0.013 | 90 |  |  | Cn1c(=O)n(C2CCC(=O)NC2=O)c2cccc(CN3CCN(CC4CCN(c5ccc([C@@H]6CCCN(c7ccc(Cl)c8c(C#N)c[nH]c78)C6)cc5)CC4)CC3)c21 (stereo partly drawn) [Example 73, 4-Chloro-7-[(3S)-3-(4-{4-[(4-{[1-(2,6-dioxopiperidin-3-yl)-3-methyl-2-oxo-2,3-dihydro-1H-benzimidazol-4-yl]methyl}piperazin-1-yl)methyl]piperidin-1-yl}phenyl)piperidin-1-yl]-1H-indole-3-carbonitrile]
 |  |  |  | 100 | 100 | COc1nc(N2CCN(CC3CCN(c4ccc(N5CCCC(c6ccc(Cl)c7c(C#N)c[nH]c67)C5)cc4)CC3)CC2)cc2c1C(=O)N(C1CCC(=O)NC1=O)C2 (single isomer, unassigned) [Example 92, 4-Chloro-7-[(3S*)-1-{4-[4-({4-[2-(2,6-dioxopiperidin-3-yl)-4-methoxy-3-oxo-2,3-dihydro-1H-pyrrolo[3,4-c]pyridin-6-yl]piperazin-1-yl}methyl)piperidin-1-yl]phenyl}piperidin-3-yl]-1H-indole-3-carbonitrile]
0.014 | 95 | 0.018 | 104 |  |  | Cc1cc2c(N3CCC(=O)NC3=O)cccc2n1C1CCN(CC2CCN(c3ccc(C4CCN(c5ccc(Cl)c6c(C#N)c[nH]c56)CC4)cc3)CC2)CC1 [Example 123, 4-Chloro-7-(4-{4-[4-({4-[4-(2,4-dioxo-1,3-diazinan-1-yl)-2-methyl-1H-indol-1-yl]piperidin-1-yl}methyl)piperidin-1-yl]phenyl}piperidin-1-yl)-1H-indole-3-carbonitrile]
0.006 | 88 | 0.005 | 97 |  |  | N#Cc1c[nH]c2c(N3CCC(c4ccc(N5CCC(N6CCN(c7ccc8c(c7)CN(C7CCC(=O)NC7=O)C8=O)CC6)CC5)cc4)CC3)ccc(Cl)c12 (centres unmarked) [Example 110, 4-Chloro-7-{4-[4-(4-{4-[2-(2,6-dioxopiperidin-3-yl)-1-oxo-2,3-dihydro-1H-isoindol-5-yl]piperazin-1-yl}piperidin-1-yl)phenyl]piperidin-1-yl}-1H-indole-3-carbonitrile]
0.001 | 94 | 0.004 | 94 |  |  | Cc1ccc(N2CCC(NC(=O)c3ccc(N4CCC(CN5CCN(c6ccc7c(c6)CN(C6CCC(=O)NC6=O)C7=O)CC5)CC4)cn3)CC2)c2[nH]cc(C#N)c12 (centres unmarked) [Example 172, N-[1-(3-Cyano-4-methyl-1H-indol-7-yl)piperidin-4-yl]-5-[4-({4-[2-(2,6-dioxopiperidin-3-yl)-1-oxo-2,3-dihydro-1H-isoindol-5-yl]piperazin-1-yl}methyl)piperidin-1-yl]pyridine-2-carboxamide]
0.025 | 98 | 0.083 | 83 |  |  | COc1nc(N2CCN(CC3CCN(c4ccc(C5CCN(c6ccc(C)c7c(C#N)c[nH]c67)CC5)cc4)CC3)CC2)cc2c1C(=O)N(C1CCC(=O)NC1=O)C2 (centres unmarked) [Example 30, 7-(4-{4-[4-({4-[2-(2,6-Dioxopiperidin-3-yl)-4-methoxy-3-oxo-2,3-dihydro-1H-pyrrolo[3,4-c]pyridin-6-yl]piperazin-1-yl}methyl)piperidin-1-yl]phenyl}piperidin-1-yl)-4-methyl-1H-indole-3-carbonitrile]
0.019 | 101 | 0.031 | 101 |  |  | Cc1cc2c(N3CCC(=O)NC3=O)cccc2n1C1CCN(CC2CCN(c3ccc([C@@H]4CCCN(c5ccc(Cl)c6c(C#N)c[nH]c56)C4)cc3)CC2)CC1 [Example 114, 4-Chloro-7-[(3S)-3-{4-[4-({4-[4-(2,4-dioxo-1,3-diazinan-1-yl)-2-methyl-1H-indol-1-yl]piperidin-1-yl}methyl)piperidin-1-yl]phenyl}piperidin-1-yl]-1H-indole-3-carbonitrile]
0.017 | 98 | 0.029 | 95 |  |  | COc1cc(N2CCN(CC3CCN(c4ccc(C5CCN(c6ccc(C)c7c(C#N)c[nH]c67)CC5)c(F)c4)CC3)CC2)cc2c1C(=O)N(C1CCC(=O)NC1=O)C2 (centres unmarked) [Example 41, 7-(4-{4-[4-({4-[2-(2,6-Dioxopiperidin-3-yl)-7-methoxy-1-oxo-2,3-dihydro-1H-isoindol-5-yl]piperazin-1-yl}methyl)piperidin-1-yl]-2-fluorophenyl}piperidin-1-yl)-4-methyl-1H-indole-3-carbonitrile]
0.073 | 94 | 0.16 | 97 |  |  | COc1cc(N2CCN(CC3CCN(c4ccc(C5CCN(c6ccc(C)c7c(C#N)c[nH]c67)CC5)c(F)c4)CC3)CC2)cc2c1C(=O)N(C1CCC(=O)NC1=O)C2=O (centres unmarked) [Example 43, 7-(4-{4-[4-({4-[2-(2,6-Dioxopiperidin-3-yl)-7-methoxy-1,3-dioxo-2,3-dihydro-1H-isoindol-5-yl]piperazin-1-yl}methyl)piperidin-1-yl]-2-fluorophenyl}piperidin-1-yl)-4-methyl-1H-indole-3-carbonitrile]

SMILES | DC50 [1] [µM] | Dmax [1] [%] | DC50 [2] [µM] | Dmax [2] [%] | LNCaP AR Degradation Dmax [1] [%] | LNCaP AR (L702H) Degradation Dmax [2] [%]
N#Cc1c[nH]c2c(N3CCC(c4ccc(OCCCCN5CCC(n6ccc7c(N8CCC(=O)NC8=O)cccc76)CC5)cc4)CC3)cccc12 [Example 58, 7-{4-[4-(4-{4-[4-(2,4-Dioxo-1,3-diazinan-1-yl)-1H-indol-1-yl]piperidin-1-yl}butoxy)phenyl]piperidin-1-yl}-1H-indole-3-carbonitrile] | 0.013 | 96 | 0.114 | 78 |  | 
